Entries after “also recorded” stand apart in the source; their conditions may differ.
Assays:
[1] = Hydrophilicity of heterodimer; format: physicochemical
OE33 cells = experiment: Apparent dissociation constant by flow cytometry with OE33 cells; format: binding, human
Procedure: The apparent dissociation constant (Kd) was measured to assess binding affinity of the heterodimer to OE33 cells. The heterodimer was serially diluted in PBS at concentrations of about 0, 10, 25, 50, 100, and 200 nM with about […] at 4° C. for one hour and washed with cold PBS. The mean fluorescence intensities were measured with flow cytometry (BD LSRII, BD Biosciences). The equilibrium dissociation constant Kd 1/Ka was calculated with a least-squares fit of the data to the nonlinear equation I=(I0+ImaxKa[X])/(I0+Ka[X]). I0 and Imax are the initial and maximum fluorescence intensities, corresponding to no peptide and at saturation, respectively, and [X] represents the concentration of bound peptide. Prism 5.0 software (Graphpad Inc.) was used to calculate Kd and Ka.

[2] = tested on: EGFR or ErbB2 in SKBr3 cells; experiment: siRNA knockdown of EGFR or ErbB2 in SKBr3 cells, confocal binding; format: cell-based, human
Procedure: siRNA knockdown experiments were performed to further validate specific heterodimer binding to either EGFR or ErbB2 in vitro. Separate siRNA knockdown of either EGFR or ErbB2 expression in SkBr3 cells was carried out to validate specific peptide binding. ON-TARGET plus human EGFR siRNA (#L-003114-00-0005), ONTARGET plus human ErbB2 siRNA (#L-003126-00-0005) and ON-TARGET plus non-targeting pool (#D-001810-10-05) were used.
siRNA at 5 μM concentration in 5 μL was transfected into SKBr3 cells using DharmaFECT transfection reagents (Thermo Scientific). Briefly, cells were seeded in 6-well culture plates at 30% confluence in McCoy's 5 Å media supplemented with 10% FBS without antibiotics. The cells were transfected with siRNA at a final concentration of […] using oligofectamine (Thermo Scientific). Knockdown of either EGFR or ErbB2 was confirmed by Western blot.

[3] = tested on: EGFR and/or ErbB2 in SKBr3 cells; experiment: Co-localization of Cy5.5 heterodimer with anti-EGFR and anti-ErbB2 antibodies on SKBr3 cells; format: cell-based, human; settings: confocal microscopy
Procedure: Co-localization experiments were performed to validate specific heterodimer binding to EGFR and/or ErbB2 in SKBr3 cells. Cells were cultured to about 70% confluence on glass coverslips, washed with PBS, and incubated with 2% BSA in PBS for 30 min to block non-specific binding. 1 μM of Cy5.5-labeled peptides were added and incubated for 30 min or 1 hour at 4° C. The cells were then washed 3× with PBS, fixed with ice cold 4% paraformaldehyde (PFA) for 10 min, washed with PBS 1×, and then mounted on glass slides with ProLong Gold reagent containing DAPI (Invitrogen).
For antibody staining, cells were incubated with either anti-EGFR (1:500, #2232S) or anti-ErbB2 (1:500, #29D8) primary antibody from Cell Signaling Inc overnight at 4° C. after fixation, and then washed with PBS 3× and processed with secondary antibody staining. Either goat anti-rabbit IgG (H+L) labeled with Alexa-Fluor 488 (1:1000, #A-11008, Invitrogen) or goat anti-mouse IgG (H&L) labeled with Alexa-Fluor 568 (1:1000, #ab175473, Abcam) was added and incubated for 1 hour at room temperature (RT). The cells were washed with PBS 3×, and mounted onto glass coverslips. Confocal fluorescence images were collected using DAPI, AF488, AF568 and Cy5.5 filter sets. Fluorescence intensities from 3 independent images were quantified using custom Matlab (Mathworks) software.

[4] = tested on: EGFR and ErbB2 mediated signaling; experiment: Effect on downstream cell signaling in SKBr3 cells (Western blot); format: cell-based, human; settings: heterodimer at 1, 5, and 20 μM
Procedure: The effect of heterodimer binding on downstream signaling was evaluated in SKBr3 cells. SKBr3 cells were seeded in 6-well flat-bottom plates. […] EGF (#E9644, Sigma) was reconstituted to 1 mg/mL using 10 mM acetic acid, diluted with 0.1% BSA, and added to SKBr3 cells at a concentration of 100 ng/mL. Lapatinib (CDS022971, Sigma) was diluted to 100 nM in DMSO and PBS from 1 mg/mL stock solution, and was added to the cells incubated with heterodimer at concentrations of 1, 5, and 20 μM in separate wells.

OE33 xenograft tumors [5] = experiment: In vivo NIR fluorescence imaging of OE33 xenograft tumors (Cy5.5); parameters: species or system nude mice
Procedure: Optical imaging was performed in nude mice bearing xenograft tumors in vivo to characterize pharmacokinetics and assess toxicity. All experimental procedures were performed in accordance with relevant guidelines and regulations of the University of Michigan, and all animal studies were conducted with approval by the University Committee on the Use and Care of Animals (UCUCA). Animals were housed per guidelines of the Unit for Laboratory Animal Medicine (ULAM).
Female athymic nude mice (002019 Foxn1, Jackson Laboratories) were obtained at 4-5 weeks of age, and were housed with four animals per cage and fed with sterilized pellet chow and water. Mice were anesthetized in an isoflurane chamber, and OE33 xenograft tumors were generated by subcutaneous injection of about 5×10^7 tumor cells suspended in […] of sterile PBS in the hind limb flank. Mice were studied at about 3-4 weeks post-inoculation when the tumor volume reached about 0.5-0.8 cm in size.
In vivo fluorescence images were collected using the Xenogen IVIS™ 200 small animal imaging system. Fluorescence intensities were measured and normalized. […] Images were collected prior to peptide injection to assess baseline auto-fluorescence values and then at various time points post-injection up to 24 hours, FIG. 5A. Fluorescence images were excited at λex=675 nm, and emission was collected at λem=740 nm with 5 sec exposure (f/stop=8).

OE33 xenograft tumors [6] = experiment: In vivo competition with unlabeled peptide monomers; parameters: species or system mice; settings: two hours after heterodimer injection
Procedure: In vivo heterodimer specificity was assessed by competition with 3000 μM of unlabeled peptide monomer or a mixture of two monomers diluted in 50 μL of PBS injected 20 min beforehand in tumor-bearing mice (n=4 per group). Blocking studies were carried out by injecting unlabeled QRH*, KSP*, and both monomers together to validate in vivo specificity. Images were collected at two hours after heterodimer injection when peak uptake was expected. The ratio of fluorescence intensity in tumor was calculated using regions of interest (ROI), and the results were presented as mean±standard deviation (SD).

In the case of “heterodimer of QRHKPRE (SEQ ID NO: 1) and KSPNPRF (SEQ ID NO: 2) with E3 (triethyleneglycol) linker, Cy5.5 label [QRH*-KSP*-E3-Cy5.5]”, the Hydrophilicity [1] is reported as “good”, the “improved binding affinity compared with either monomer alone” value (OE33 cells) is reported as 2 fold and the Kd (OE33 cells; flow cytometry, 4° C.) is reported as 23 nM. For the same substance, the “binding to siCL (control) versus siEGFR (knockdown) SKBr3 cells” value ([2]; confocal microscopy, similar results for siErbB2) was “Less signal; also recorded: significantly greater binding”, the “binding to surface of siCL (control) SKBr3 cells” value ([2]; non-targeting siRNA) was “strong binding” and the “mean fluorescence intensity in EGFR or ErbB2 knockdown cells” value ([2]; quantified, versus control SKBr3 cells) was “significant reduction”. The “binding to surface of SKBr3 cells” value [3] was “bind strongly”, the “phosphorylation of EGFR (p-EGFR) and ErbB2 (p-ErbB2)” value [4] was “no change” and the “phosphorylation of downstream AKT (p-AKT) and ERK (p-ERK)” value [4] was “no downstream change”. The “peak mean tumor signal versus control peptide” value (OE33 xenograft tumors [5]; about 2 hours after intravenous injection, n=6) was “significantly greater”, the “time of return of signal to baseline / systemic clearance” value (OE33 xenograft tumors [5]; intravenous, OE33 xenograft) was “about 24 hours” and the “tumor signal after prior injection of unlabeled QRH*, KSP*, or both” value (OE33 xenograft tumors [6]) was “reduction of signal”.
